Data from US20040033517A1, “Compositions and methods relating to endothelial cell signaling using the protease activated receptor (PAR1)” (priority 2002, published 2004).
Like-named read-outs stand apart in the source and are kept apart here. Ends that are not written are not given here.

Tests used:
[1] = tested on: thrombin-mediated PAR1 signaling; conditions: 100 nM hirudin; M. Riewald et al., Blood 97: 3109, 2001; cited from earlier work
[2] = tested on: human umbilical vein endothelial cells HUVEC-C; format: cell-based
Excerpt: Microarray Analysis. […] Total RNA was isolated followed by reverse transcription. Purified double stranded cDNA was in vitro transcribed in the presence of biotinylated dUTP and dCTP, fragmented cRNA was hybridized to the HG-U95Av2 array (Affymetrix, Santa Clara, Calif.), followed by staining with streptavidin-phycoerythrin. Arrays were scanned and analyzed using GeneChip3.1 software. […] An average fold-induction for the three independent experiments was obtained by calculating the means of the logarithm of the individual fold-increases for each agonist.

[3] = HUVEC-C, 90 min, genes represented in FIG. 2 A-C
[4] = HUVEC-C, 90 min, higher variability, PAR1 enhanced (<1.3 fold with PAR2 agonist)
[5] = HUVEC-C, 90 min, higher variability, PAR2 enhanced (<1.3 fold with PAR1 agonist)
[6] = HUVEC-C, 90 min, higher variability, genes not induced by APC (<1.3 fold with APC)

## hirudin
[1]
  Block of cell surface thrombin-mediated PAR1 signaling: block all cell surface thrombin-mediated PAR1 signaling

## SLIGRL [PAR2, SLIGRL]
[2]
  Average fold induction, BIRC3 U45878 HUMAN INHIBITOR OF APOPTOSIS PROTEIN (IAP) 1: 1.41 fold
  Average fold induction, NAB1 AF045451 NGFIA-BINDING PROTEIN: 1.38 fold
[2]; [3]
  Average Induction, A1288757 qm11h01.x1 Homo sapiens cDNA: 2.3 fold
  Average Induction, A1670788 tz10c02.x1 Homo sapiens cDNA: 1.4 fold
  Average Induction, A1985272 ws06b05.x1 Homo sapiens cDNA: 1.4 fold
  Average Induction, A8022718 Homo sapiens m.RNA for DEPP (decidual protein induced by progesterone): 2.0 fold
  Average Induction, AB004066 Homo sapiens mRNA for DEC1: 1.3 fold
  Average Induction, AB014569 Homo sapiens mRNA for K1AA0669 protein: 2.0 fold
  Average Induction, AF017786 Homo sapiens phosphatidic acid phosphohydrolase homolog (Dri42): 1.6 fold
  Average Induction, AF022375 Homo sapiens vascular endothelial growth factor mRNA: 1.3 fold
  Average Induction, AF039843 Homo sapiens Sprouty 2 (SPRY2) mRNA: 1.8 fold
  Average Induction, AF045451 Homo sapiens transcriptional regulatory protein p54: 1.4 fold
  Average Induction, AF050110 Homo sapiens TGFb inducible early protein and early growth response protein alpha genes: 1.4 fold
  Average Induction, AF054182 Homo sapiens mitochondrial processing peptidase beta-subunit mRNA: 1.3 fold
  Average Induction, AF068197 Homo sapiens BCE-1 mRNA: 1.8 fold
  Average Induction, AF078077 Homo sapiens growth arrest and DNA-damage-inducible protein GADD45beta: 1.3 fold
  Average Induction, AJ005821 Homo sapiens mRNA for X-like 1 protein: 1.6 fold
  Average Induction, AL023584 Human DNA sequence from clone 67K17 on chromosome 6q24.1-24.3.: 2.0 fold
  Average Induction, AL031432 Human DNA sequence from clone 465N24 on chromosome 1p35.1-36.13.: 2.6 fold
  Average Induction, AL050078 Homo sapiens mRNA; cDNA DKFZp566G0746: 1.6 fold
  Average Induction, AL096858 Novel human gene mapping to chomosome 1: 1.5 fold
  Average Induction, Cluster Incl M22489 Human bone morphogenetic protein 2A (BMP-2A): 2.9 fold
  Average Induction, Cluster Incl U12767 Human mitogen induced nuclear orphan receptor (MINOR): 3.4 fold
  Average Induction, D15050 Human mRNA for transcription factor AREB6: 1.7 fold
  Average Induction, D50917 Human mRNA for KIAA0127 gene: 1.3 fold
  Average Induction, D78579 Homo sapiens mRNA for neuron derived orphan receptor: 1.4 fold
  Average Induction, D86181 Homo sapiens DNA for galactocerebrosidase: 1.5 fold
  Average Induction, Guanine Nucleotide Exchange Factor 2: 1.4 fold
  Average Induction, J02931 Human placental tissue factor (two forms) mRNA: 2.7 fold
  Average Induction, J04076 Human early growth response 2 protein (EGR2) mRNA: 2.0 fold
  Average Induction, J04111 Human c-jun proto oncogene (JUN): 1.5 fold
  Average Induction, L05072 Homo sapiens interferon regulatory factor 1 gene: 2.0 fold
  Average Induction, L19871 Human activating transcription factor 3 (ATF3): 2.6 fold
  Average Induction, L43821 Homo sapiens enhancer of filamentation (HEF1) mRNA: 1.2 fold
  Average Induction, M22489/FEATURE Human bone morphogenetic protein 2A (BMP-2A): 3.2 fold
  Average Induction, M26683 Human interferon gamma treatment inducible mRNA: 1.0 fold
  Average Induction, M28211 Homo sapiens GTP-binding protein (RAB4) mRNA: 2.7 fold
  Average Induction, M28225 Human JE gene encoding a monocyte secretory protein [= MCP-1]: 1.1 fold
  Average Induction, M29039 Human transactivator (jun-B) gene: 2.8 fold
  Average Induction, M30474 Human kidney gamma-glutamyl transpeptidase type II mRNA: 2.1 fold
  Average Induction, M31516 Human decay-accelerating factor mRNA: 1.9 fold
  Average Induction, M36820 Human cytokine (GRO-beta) mRNA: 1.6 fold
  Average Induction, M59465 Human tumor necrosis factor alpha inducible protein A20 mRNA: 1.3 fold
  Average Induction, M60278 Human heparin-binding EGF-like growth factor mRNA: 3.9 fold
  Average Induction, M60721 Human homeobox gene: 3.7 fold
  Average Induction, M69043 Homo sapiens MAD-3 mRNA encoding 1kB-like activity: 1.4 fold
  Average Induction, M92843 H.sapiens zinc finger transcriptional regulator mRNA: 3.4 fold
  Average Induction, S81439 EGR alpha=early growth response gene alpha: 1.4 fold
  Average Induction, S81914 IEX-1=radiation-inducible immediate-early gene: 1.2 fold
  Average Induction, U04636 Human cyclooxygenase-2 (hCox-2) gene: 1.3 fold
  Average Induction, U07802 Human Tis1 1d gene: 1.6 fold
  Average Induction, U08015 Human NF-ATc mRNA: 2.0 fold
  Average Induction, U12767/FEATURE Human mitogen induced nuclear orphan receptor (MINOR): 3.3 fold
  Average Induction, U15932 Human dual-specificity protein phosphatase: 3.3 fold
  Average Induction, U25997 Homo sapiens stanniocalcin precursor (STC) mRNA: 1.4 fold
  Average Induction, U43142 Human vascular endothelial growth factor related protein VRP: 1.9 fold
  Average Induction, U59863 Human TRAF-interacting protein I-TRAF mRNA: 1.1 fold
  Average Induction, U75697 Human transcription regulator RPD3-2B mRNA: 2.6 fold
  Average Induction, U79259 Human clone 23945 mRNA: 1.7 fold
  Average Induction, U81607 Homo sapiens gravin mRNA: 1.3 fold
  Average Induction, W27545 32c4 Homo sapiens cDNA: 1.2 fold
  Average Induction, X51345 Human jun-B mRNA for JUN-B protein: 1.8 fold
  Average Induction, X63741 H.sapiens pilot mRNA: 3.0 fold
  Average Induction, X68277 H.sapiens CL 100 mRNA for protein tyrosine phosphatase: 2.8 fold
  Average Induction, X75918 H.sapiens mRNA for NOT: 3.3 fold
  Average Induction, X89066 H.sapiens mRNA for TRPC1 protein: 2.2 fold
  Average Induction, X94216 H.sapiens mRNA for VEGF-C protein: 2.1 fold
  Average Induction, Y00630 Human mRNA for Arg-Serpin (plasminogen activator-inhibitor 2, PAI-2): 1.7 fold
  Average Induction, Z25821 H.sapiens gene for mitochondrial dodecenoyl-CoA delta-isomerase: 1.7 fold
  Average Induction, Z48054 H.sapiens mRNA for peroxisomal targeting signal 1 (SKL type) receptor: 1.9 fold
[2]; HUVEC-C, 90 min, genes represented in FIG. 2 A-C, first probe set
  Average Induction, L13740 Human TR3 orphan receptor mRNA: 5.4 fold
[2]; HUVEC-C, 90 min, genes represented in FIG. 2 A-C, second probe set
  Average Induction, L13740 Human TR3 orphan receptor mRNA: 5.4 fold
[2]; [4]
  Average Induction, A1186701 qe82d12.x1 Homo sapiens cDNA: 1.1 fold
  Average Induction, A1953789 wx69d10.x1 Homo sapiens cDNA: 0.9 fold
  Average Induction, AF024710 Homo sapiens vascular endothelial growth factor (VEGF): 1.1 fold
  Average Induction, AL035297 H.sapiens gene from PAC 747L4: 1.0 fold
  Average Induction, M22299 Human T-plastin polypeptide mRNA: 1.2 fold
  Average Induction, U35735 Human RACH1 (RACH1) mRNA: 1.1 fold
  Average Induction, U87460 Human putative endothelin receptor type B-like protein mRNA: 0.9 fold
[2]; [5]
  Average Induction, A1038821 ox96d03.x1 Homo sapiens cDNA: 2.0 fold
  Average Induction, AC004475 Homo sapiens chromosome 19, cosmid F23858: 1.4 fold
  Average Induction, AL049354 Homo sapiens mRNA; cDNA DKFZp566E183: 1.3 fold
  Average Induction, L38696 Homo sapiens autoantigen p542 mRNA: 1.3 fold
  Average Induction, U27655 Human RGP3 mRNA: 1.5 fold
  Average Induction, U53831 Homo sapiens interferon regulatory factor 7B: 1.5 fold
  Average Induction, U58334 Human Bcl2, p53 binding protein Bbp/53BP2 (BBP/53BP2) mRNA: 1.5 fold
  Average Induction, U65093 Human msg1-related gene 1 (mrg1) mRNA: 1.7 fold
  Average Induction, W26851 17b12 Homo sapiens cDNA: 1.6 fold
  Average Induction, Y13115 Homo sapiens mRNA for serine/threonine protein kinase SAK: 1.6 fold
  Average Induction, Z25821 H.sapiens gene for mitochondrial dodecenoyl-CoA delta-isomerase: 1.7 fold
[2]; [6]
  Average Induction, AB028069 Homo sapiens mRNA for activator of S phase Kinase: 2.0 fold
  Average Induction, D38537 Human mRNA for protoporphyrinogen oxidase: 1.6 fold
  Average Induction, M83667 Human NF-IL6-beta protein: 1.3 fold
  Average Induction, U78082 Human RNA polymerase transcriptional regulation mediator (h-MED6) mRNA: 1.3 fold
  Average Induction, U85267 Homo sapiens down syndrome candidate region 1 (DSCR1) gene: 2.0 fold
